pEC50: −log10 of the molar value. Counter-ions that a name gives are not always drawn.
These compounds were tested against T1, RIPK1 (Homo sapiens, UniProt Q13546) (assay: RIPK1-ADP-Glo enzymatic assay). Conditions: ADP-Glo luminescent ADP detection; 25 nM GST-RIPK1 kinase domain (residues 1-327), 300 μM ATP, dephosphorylated-MBP substrate; 30 min pre-incubation, 150 min reaction.
T1 construct: recombinant GST-RIPK1 kinase domain (residues 1-327) enzyme produced from baculovirus-transfected Sf21 cells; host or cells: baculovirus-transfected Sf21 insect cells
T1 sequence (Q13546 1-327): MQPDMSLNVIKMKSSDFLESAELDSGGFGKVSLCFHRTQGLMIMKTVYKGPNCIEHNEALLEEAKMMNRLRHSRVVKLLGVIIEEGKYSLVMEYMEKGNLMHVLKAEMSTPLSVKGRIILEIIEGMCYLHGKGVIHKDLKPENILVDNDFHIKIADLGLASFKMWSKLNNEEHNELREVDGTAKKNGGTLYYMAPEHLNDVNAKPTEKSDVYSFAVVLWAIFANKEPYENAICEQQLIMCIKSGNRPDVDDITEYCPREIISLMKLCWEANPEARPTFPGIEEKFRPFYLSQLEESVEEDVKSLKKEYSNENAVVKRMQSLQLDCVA
Format: biochemical
Procedure: RIPK1-ADP-Glo Enzymatic Assay
The enzymatic activity of RIPK1 is measured using an assay derived from ADP-Glo kit (Promega™), which provides a luminescent-based ADP detection system. Specifically, the ADP generated by RIPK1 kinase is proportionally detected as luminescent signals in a homogenous fashion. In this context, the assessment of the inhibitory effect of small molecules (EC50) is measured by the effectiveness of the compounds to inhibit the ATP to ADP conversion by RIPK1.
In this assay, the potency (EC50) of each compound was determined from a ten-point (1:3 serial dilution; top compound concentration of 100000 nM) titration curve using the following outlined procedure. To each well of a white ProxiPlus 384 well-plate, 30 nL of compound (1% DMSO in final assay volume of 3 μL) was dispensed, followed by the addition of 2 μL of 1×assay buffer (25 mM Hepes 7.3, 20 mM MgCl2, 50 mM NaCl, 1 mM DTT, 0.005% Tween20, and 0.02% BSA) containing 37.5 nM of GST-RIPK1 (recombinant GST-RIPK1 kinase domain (residues 1-327) enzyme produced from baculovirus-transfected Sf21 cells: MW=62 kDa). Plates were placed in an ambient temperature humidified chamber for a 30 minutes pre-incubation with compound. Subsequently, each reaction was initiated by the addition of 1 μL 1×assay buffer containing 900 μM ATP and […] dephosphorylated-MBP substrate. The final reaction in each well of 3 μL consists of 25 nM of GST-RIPK1, 300 μM ATP, and 3 μM dephosphorylated-MBP. Kinase reactions were allowed to proceed for 150 minutes prior to adding ADP-Glo reagents per Promega's outlined kit protocol. Dose-response curves were generated by plotting percent effect (% product conversion; Y-axis) vs. Log10 compound concentrations (X-axis). EC50 values were calculated using a non-linear regression, four-parameters sigmoidal dose-response model.

Compound | pEC50
O=C(N1CC(Oc2ccccn2)C1)N1N=CC[C@H]1c1cc(F)cc(F)c1 [Example 1.58, (S)-(5-(3,5-difluorophenyl)-4,5-dihydro-1H-pyrazol-1-yl)(3-(pyridin-2-yloxy)azetidin-1-yl)methanone] | 5.86
O=C(N1CC(OC2CCCCC2)C1)N1N=CC[C@H]1c1cc(F)cc(F)c1 [Example 1.59, (S)-(3-(cyclohexyloxy)azetidin-1-yl)(5-(3,5-difluorophenyl)-4,5-dihydro-1H-pyrazol-1-yl)methanone] | 6.61
O=C(N1CCC1)N1N=CC[C@H]1c1cc(F)cc(F)c1 [Example 1.60, (S)-azetidin-1-yl(5-(3,5-difluorophenyl)-4,5-dihydro-1H-pyrazol-1-yl)methanone] | 7.19
N#Cc1ccc(OC2CN(C(=O)N3N=CC[C@H]3c3cc(F)cc(F)c3)C2)cn1 [Example 1.61, (S)-5-((1-(5-(3,5-difluorophenyl)-4,5-dihydro-1H-pyrazole-1-carbonyl)azetidin-3-yl)oxy)picolinonitrile] | 7.58
CCOC1CN(C(=O)N2N=CC[C@H]2c2cc(F)cc(F)c2)C1 [Example 2.2, (S)-(5-(3,5-difluorophenyl)-4,5-dihydro-1H-pyrazol-1-yl)(3-ethoxyazetidin-1-yl)methanone] | 7.57
CC(C)C1(O)CN(C(=O)N2N=CC[C@H]2c2ccc(Cl)cc2)C1 [Example 2.7, (S)-(5-(4-chlorophenyl)-4,5-dihydro-1H-pyrazol-1-yl)(3-hydroxy-3-isopropylazetidin-1-yl)methanone] | 5.29
O=C(N1CC(O)(c2ccccc2)C1)N1N=CC[C@H]1c1ccc(Cl)cc1 [Example 2.8, (S)-(5-(4-chlorophenyl)-4,5-dihydro-1H-pyrazol-1-yl)(3-hydroxy-3-phenylazetidin-1-yl)methanone] | 5.61
O=C(N1CC(Nc2ccccc2)C1)N1N=CC[C@H]1c1ccc(Cl)cc1 [Example 2.9, (S)-(5-(4-chlorophenyl)-4,5-dihydro-1H-pyrazol-1-yl)(3-(phenylamino)azetidin-1-yl)methanone] | 7.64
O=C(N1CC(O)(C(F)(F)F)C1)N1N=CC[C@H]1c1ccc(Cl)cc1 [Example 2.11, (S)-(5-(4-chlorophenyl)-4,5-dihydro-1H-pyrazol-1-yl)(3-hydroxy-3-(trifluoromethyl)azetidin-1-yl)methanone] | 6.24
COC1(C)CN(C(=O)N2N=CC[C@H]2c2ccc(Cl)cc2)C1 [Example 2.13, (S)-(5-(4-chlorophenyl)-4,5-dihydro-1H-pyrazol-1-yl)(3-methoxy-3-methylazetidin-1-yl)methanone] | 7.19
O=C(N1CC(Oc2ccccc2)C1)N1N=CC[C@H]1c1cccnc1 [Example 2.14, (S)-(3-phenoxyazetidin-1-yl)(5-(pyridin-3-yl)-4,5-dihydro-1H-pyrazol-1-yl)methanone] | 7.69
O=C(N1CC(Oc2ccccc2)C1)N1N=CC[C@@H]1c1cccnc1 [Example 2.15, (R)-(3-phenoxyazetidin-1-yl)(5-(pyridin-3-yl)-4,5-dihydro-1H-pyrazol-1-yl)methanone] | 7.02
O=C(N1CC(Oc2ccccc2)C1)N1N=CC[C@H]1C12CCC(CC1)C2 [Example 2.16, ((5S)-5-(bicyclo[2.2.1]heptan-1-yl)-4,5-dihydro-1H-pyrazol-1-yl)(3-phenoxyazetidin-1-yl)methanone] | 7.03
Cc1ncc([C@@H]2CC=NN2C(=O)N2C[C@H](Oc3ccc(F)cc3)[C@@H]2C)cc1F [Example 2.19, ((S)-5-(5-fluoro-6-methylpyridin-3-yl)-4,5-dihydro-1H-pyrazol-1-yl)((2S,3S)-3-(4-fluorophenoxy)-2-methylazetidin-1-yl)methanone] | 7.91
C[C@@H]1[C@H](Oc2ccc(F)cc2)CN1C(=O)N1N=CC[C@H]1c1ccc(Cl)cc1 [Example 2.20, ((S)-5-(4-chlorophenyl)-4,5-dihydro-1H-pyrazol-1-yl)((2R,3R)-3-(4-fluorophenoxy)-2-methylazetidin-1-yl)methanone] | 7.59
C[C@@H]1[C@H](Oc2ccc(F)cc2)CN1C(=O)N1N=CC[C@H]1c1cc(F)cc(F)c1 [Example 2.21, ((S)-5-(3,5-difluorophenyl)-4,5-dihydro-1H-pyrazol-1-yl)((2R,3R)-3-(4-fluorophenoxy)-2-methylazetidin-1-yl)methanone] | 7.41
C[C@@H]1[C@@H](Oc2ccc(F)cc2)CN1C(=O)N1N=CC[C@H]1c1cncc(C#N)c1 [Example 2.24, 5-((S)-1-((2R,3S)-3-(4-fluorophenoxy)-2-methylazetidine-1-carbonyl)-4,5-dihydro-1H-pyrazol-5-yl)nicotinonitrile] | 7.94
C[C@H]1[C@@H](Oc2ccc(F)cc2)CN1C(=O)N1N=CC[C@H]1c1cncc(C#N)c1 [Example 2.25, 5-((S)-1-((2S,3S)-3-(4-fluorophenoxy)-2-methylazetidine-1-carbonyl)-4,5-dihydro-1H-pyrazol-5-yl)nicotinonitrile] | 7.89

The next lines start with the values.

pEC50 | Compound
7.96 | COC1CN(C(=O)N2N=CC[C@H]2c2cc(F)cc(F)c2)C1 [Example 2.1, (S)-(5-(3,5-difluorophenyl)-4,5-dihydro-1H-pyrazol-1-yl)(3-methoxyazetidin-1-yl)methanone]
8.17 | O=C(N1CC(Nc2ccccc2)C1)N1N=CC[C@H]1c1cc(F)cc(F)c1 [Example 2.3, (S)-(5-(3,5-difluorophenyl)-4,5-dihydro-1H-pyrazol-1-yl)(3-(phenylamino)azetidin-1-yl)methanone]
8.02 | O=C(N1CC(Oc2ccccc2)C1)N1N=CC[C@H]1c1ccc(Cl)cc1 [Example 2.6, (S)-(5-(4-chlorophenyl)-4,5-dihydro-1H-pyrazol-1-yl)(3-phenoxyazetidin-1-yl)methanone]
7.94 | O=C(N1CC(Cc2ccccc2)C1)N1N=CC[C@H]1c1ccc(Cl)cc1 [Example 2.10, (S)-(3-benzylazetidin-1-yl)(5-(4-chlorophenyl)-4,5-dihydro-1H-pyrazol-1-yl)methanone]
7.97 | CC(C)OC1CN(C(=O)N2N=CC[C@H]2c2ccc(Cl)cc2)C1 [Example 2.12, (S)-(5-(4-chlorophenyl)-4,5-dihydro-1H-pyrazol-1-yl)(3-isopropoxyazetidin-1-yl)methanone]
8.15 | CN(c1ccccc1)C1CN(C(=O)N2N=CC[C@H]2c2cc(F)cc(F)c2)C1 [Example 2.17, (S)-(5-(3,5-difluorophenyl)-4,5-dihydro-1H-pyrazol-1-yl)(3-(methyl(phenyl)amino)azetidin-1-yl)methanone, TFA salt]
8.00 | C[C@H]1[C@@H](Oc2ccc(F)cc2)CN1C(=O)N1N=CC[C@H]1c1cncc(F)c1 [Example 2.18, ((2S,3S)-3-(4-fluorophenoxy)-2-methylazetidin-1-yl)((S)-5-(5-fluoropyridin-3-yl)-4,5-dihydro-1H-pyrazol-1-yl)methanone]
8.12 | C[C@@H]1[C@@H](Oc2ccc(F)cc2)CN1C(=O)N1N=CC[C@H]1c1cncc(F)c1 [Example 2.22, ((2R,3S)-3-(4-fluorophenoxy)-2-methylazetidin-1-yl)((S)-5-(5-fluoropyridin-3-yl)-4,5-dihydro-1H-pyrazol-1-yl)methanone]
8.00 | Cc1ncc([C@@H]2CC=NN2C(=O)N2C[C@H](Oc3ccc(F)cc3)[C@H]2C)cc1F [Example 2.23, ((S)-5-(5-fluoro-6-methylpyridin-3-yl)-4,5-dihydro-1H-pyrazol-1-yl)((2R,3S)-3-(4-fluorophenoxy)-2-methylazetidin-1-yl)methanone]

Source: US20230265094A1, “RIPK1 INHIBITORS AND METHODS OF USE” (Merck Sharp & Dohme LLC, priority 2020, published 2023)
